Data: patent US8324258B2, “F1F0-ATPase inhibitors and related methods” (The Regents of the University of Michigan, priority 2007, dated 2012)

Experiments:
[1] = target: T1, F1F0-ATPase (Bos taurus, UniProt P13621); assay: Inhibition of ATP hydrolysis by the F1F0-ATPase; type: biochemical; settings: IC40: concentration for 40% inhibition
Method: (§1) The compounds listed in Table 9 were tested for activity against F1F0-ATPase by measuring ATP synthesis and ATP hydrolysis. In addition, the compounds were assessed for cytotoxicity in Ramos cells Inhibition of ATP synthesis and hydrolysis by the F1F0-ATPase and cytotoxicity in Ramos cells was measured as described in K. M. Johnson et al. Chemistry & Biology 2005, 12, 485-496.

[2] = target: T1, F1F0-ATPase; assay: Inhibition of ATP synthesis by the F1F0-ATPase; type: biochemical; settings: IC40: concentration for 40% inhibition
Method: as §1

[3] = test system: Ramos cells; assay: Cytotoxicity (cell death) in Ramos cells; type: cell-based; settings: Ramos cells
Method: as §1

| Molecule | ATP Hydrolysis (IC40 μM) [1] [µM] | ATP Synthesis (IC40 μM) [2] [µM] | EC50 [3] [µM] |
| --- | --- | --- | --- |
| N#Cc1cccc(C(=O)N=C(NCCc2c[nH]cn2)Nc2cccc(-c3ccccc3)c2)c1 [VI-5, (Z/E)-N-((2-(1H-imidazol-4-yl)ethylamino)(biphenyl-3-ylamino)methylene)-3-cyanobenzamide] | >30 | >10 | > 10 |
| N#Cc1ccc(C(=O)N=C(NCCc2c[nH]cn2)Nc2cccc(-c3ccccc3)c2)cc1 [VI-6, (Z/E)-N-((2-(1H-imidazol-4-yl)ethylamino)(biphenyl-3-ylamino)methylene)-4-cyanobenzamide] | >30 | <10 | > 10 |
| O=C(N=C(NCCc1c[nH]cn1)Nc1cccc(-c2ccccc2)c1)c1cccc(F)c1 [VI-7, (Z/E)-N-((2-(1H-imidazol-4-yl)ethylamino)(biphenyl-3-ylamino)methylene)-3-fluorobenzamide] | >10 | <10 | > 10 |
| O=C(N=C(NCCc1c[nH]cn1)Nc1cccc(-c2ccccc2)c1)c1ccc(F)cc1 [VI-8, (Z/E)-N-((2-(1H-imidazol-4-yl)ethylamino)(biphenyl-3-ylamino)methylene)-4-fluorobenzamide] | >10 | <10 | > 10 |
| O=C(N=C(NCCc1c[nH]cn1)Nc1cccc(-c2ccccc2)c1)c1ccc(Cl)c(Cl)c1 [VI-9, (Z/E)-N-((2-(1H-imidazol-4-yl)ethylamino)(biphenyl-3-ylamino)methylene)-3,4-dichlorobenzamide] | <10 | <10 | < 10 |
| O=C(N=C(NCCc1c[nH]cn1)Nc1cccc(-c2ccccc2)c1)c1cccc(Br)c1 [VI-10, (Z/E)-N-((2-(1H-imidazol-4-yl)ethylamino)(biphenyl-3-ylamino)methylene)-3-bromobenzamide] | >10 | <10 | < 10 |
| O=C(N=C(NCCc1c[nH]cn1)Nc1cccc(-c2ccccc2)c1)c1ccc(Br)cc1 [VI-11, (Z/E)-N-((2-(1H-imidazol-4-yl)ethylamino)(biphenyl-3-ylamino)methylene)-4-bromobenzamide] | >10 | <10 | < 10 |
| O=C(N=C(NCCc1c[nH]cn1)Nc1cccc(-c2ccccc2)c1)c1cccc([N+](=O)[O-])c1 [VI-12, (Z/E)-N-((2-(1H-imidazol-4-yl)ethylamino)(biphenyl-3-ylamino)methylene)-3-nitrobenzamide] | >30 | <10 | > 10 |
| O=C(N=C(NCCc1c[nH]cn1)Nc1cccc(-c2ccccc2)c1)c1ccc([N+](=O)[O-])cc1 [VI-13, (Z/E)-N-((2-(1H-imidazol-4-yl)ethylamino)-(biphenyl-3-ylamino)methylene)-4-nitrobenzamide] | >30 | <10 | < 10 |
| O=C(N=C(NCCc1c[nH]cn1)Nc1cccc(-c2ccccc2)c1)c1ccc(Cl)cc1 [VI-14, (Z/E)-N-((2-(1H-imidazol-4-yl)ethylamino)(biphenyl-3-ylamino)methylene)-4-chlorobenzamide] | >10 | <10 | > 10 |
| (Z/E)-N-((2-(1H-imidazol-5-yl)ethylamino)(4-(methylsulfonyl)phenylamino)methylene)-3-chlorobenzamide [III-36] | >30 | >20 | > 30 |
